Several values for one entry are separate records, joined by “and”; a condition that tells them apart may be missing. Equal entries are not always repeated.
Tests used:
[1] = test system: γ-globin proteins in CD34+-derived cells; experiment: γ-globin protein quantification by LC-MS/MS in CD34+-derived cells; type: cell-based, human
Experimental: The extraction and digestion of proteins were performed according to the method reported in a previous paper. Briefly, collected cell pellets, 120 μL of water, 12.5 μL of acetonitrile, and 12.5 μL of 1% formic acid were mixed and sonicated. The mixture was centrifuged to remove the cell debris and the supernatant was collected. Ten microliters of supernatant was reduced by dithiothreitol, alkylated with iodoacetamide, and digested with trypsin/Lys-C mix (Promega) in 50 mM ammonium bicarbonate (pH 8.0) (Sigma) at 37 °C overnight. For protein quantification analysis by LC–MS/MS, 10 pmol of stable isotope–labeled peptides (synthesized by the Support Unit for Bio-Material Analysis, RIKEN Center for Brain Science) were added to the digested sample as an internal standard. The digested sample was stored at −25 °C until analysis. The trypsinized sample was applied to an EASY-nLC 1000 liquid chromatograph (Thermo Fisher Scientific) and Q-Exactive mass spectrometer (Thermo Fisher Scientific) equipped with a nanospray ion source (Thermo Fisher Scientific). […]
Protein quantification was performed using Vanquish UHPLC (Thermo Fisher Scientific) and TSQ-Vantage EMR (Thermo Fisher Scientific) with a HESI-II ion source (Thermo Fisher Scientific) in multiple reaction monitoring (MRM) mode. […]

[2] = test system: H3K9me2 on the β-globin locus; experiment: ChIP-seq for H3K9me2 in HUDEP-2 cells; type: cell-based, human; settings: HUDEP-2, 1 μM, 4 days
Experimental: A total of 0.5–1 × 10^6 cells were cross-linked with 1% formaldehyde for 10 min at room temperature and the reaction was quenched with 250 mM glycine. Cross-linked cells were then lysed with buffer 1 (15 mM Tris-HCl (pH 7.5), 60 mM KCl, 15 mM NaCl, 5 mM MgCl2, 0.1 mM EGTA, 300 mM sucrose, […], 1 mM phenylmethanesulfonyl fluoride (PMSF), 0.5% NP40) and incubated on ice for 10 min. After centrifugation, the pellet was re-suspended in buffer 2 (15 mM Tris-HCl (pH 7.5), 60 mM KCl, 15 mM NaCl, 5 mM MgCl2, 0.1 mM EGTA, 1.2 M sucrose, […], 1 mM PMSF). After centrifugation, the pellet was then re-suspended in MNase buffer (50 mM Tris-HCl (pH 7.5), 1 mM CaCl2, 4 mM MgCl2, 320 mM sucrose, 1 mM PMSF) and digested with 100 U of micrococcal nuclease (Takara) at 37 °C for 15 min. […] The samples were analyzed by qPCR. […] ChIP-seq analysis were analyzed Cutadapt (V1.9.1) for QC, FastQC (V0.10.1) for QC assessment, Bowtie (V2.1.0) for mapping, strand cross-correlation (SCC) for ChIP quality assessment, MACS2 for peak calling, and R package ChIPpeakAnno for Peak annotated.

[3] = molecular target: PRMT7 (Homo sapiens, UniProt Q9NVM4)
PRMT7, sequence (Q9NVM4 whole entry): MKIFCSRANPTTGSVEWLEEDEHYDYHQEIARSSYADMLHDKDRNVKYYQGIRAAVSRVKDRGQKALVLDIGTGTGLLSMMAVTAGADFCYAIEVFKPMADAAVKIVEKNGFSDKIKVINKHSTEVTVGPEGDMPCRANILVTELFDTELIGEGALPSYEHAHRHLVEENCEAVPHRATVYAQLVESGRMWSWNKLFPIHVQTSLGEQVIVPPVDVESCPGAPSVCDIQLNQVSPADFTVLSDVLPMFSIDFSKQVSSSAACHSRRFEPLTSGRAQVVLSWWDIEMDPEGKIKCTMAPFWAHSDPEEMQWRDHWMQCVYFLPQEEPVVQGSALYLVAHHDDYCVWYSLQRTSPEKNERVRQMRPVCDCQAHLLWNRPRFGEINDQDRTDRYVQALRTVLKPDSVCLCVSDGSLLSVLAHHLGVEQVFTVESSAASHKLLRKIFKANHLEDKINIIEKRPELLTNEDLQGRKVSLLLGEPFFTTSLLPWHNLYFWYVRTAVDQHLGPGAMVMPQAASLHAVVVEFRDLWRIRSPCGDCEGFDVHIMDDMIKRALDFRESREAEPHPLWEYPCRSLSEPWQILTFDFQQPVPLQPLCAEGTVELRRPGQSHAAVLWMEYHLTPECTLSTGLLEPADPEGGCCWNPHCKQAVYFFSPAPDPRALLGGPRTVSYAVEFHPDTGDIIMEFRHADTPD

| Structure (SMILES) | Percentage of γ-globin proteins relative to total β-like globin proteins ([1]; day 11, 10 μM) | Percentage of γ-globin proteins relative to total β-like globin proteins ([1]; day 11, 50 μM) | occupancies of H3K9me2 throughout the β-globin gene locus [2] | IC50 [3] |
| --- | --- | --- | --- | --- |
| NC(=O)NO [Hydroxyurea, hydroxyurea] | 8.1% and 10.3% | 8.1% and 10.3% and 14.3% | – | – |
| Cc1c(C(=O)NC(CCC2CC2)C(=O)Nc2ccc(C#N)cc2)[nH]c2c1C(=O)CC(C)(C)C2 (stereo not shown) [RK-701] | – | – | reduced | > 100 µM |
